Results taken from patent publication US10538567B2, “Compounds as peptidic trigonal GLP1/glucagon/GIP receptor agonists” (priority 2016, dated 2020).
Numbered stars: 1 amine (or outer) side, 2 acyl side, 3 side chain; on linkers, the order of the positions; unused ones are H or OH. Square brackets hold non-standard residues; d marks the D form. Side chains are listed from the residue outwards. Peptide text beside a SMILES is read from it. * marks the point of attachment. γGlu = O=C(O)[C@H](CCC(=O)[*:2])N[*:1]; Palmitoyl = CCCCCCCCCCCCCCCC(=O)*; Aib = CC(C)(N)C(=O)O

How the values were obtained:
[1] = test system: female diabetic db/db mice; assay: Acute effects after s.c. treatment on blood glucose in non-fasting female diabetic db/db mice; assay type: in vivo; conditions: single 30 μg/kg s.c.
Description: Female healthy, lean BKS.Cg-(lean)/OlaHsd and diabetes-prone, obese BKS.Cg-+Lepr^db/+Lepr^db/OlaHsd mice were ordered group housed from Envigo RMS Inc., shipped group housed and remained group housed in shoebox caging with wood chip bedding until day 15 of the predose phase. At the study start mice were approximately 12 weeks old.
Mice were housed under vivarium conditions including a 12 h light/dark cycle (light phase 04:00 AM-4:00 PM), room temperatures between 23-26° C. and a relative humidity between 30-70%. All animals had free access to water and Purina Fomulab Diet 5008.
On predose day 9 blood glucose and body mass (approximately between 08:00-10:00 AM) as well as HbA1c measurements were performed. On day 15 of the predose phase animals were assigned to treatment groups (n=8) and to new cages to match mean HbA1c and body masses between all db/db groups. An age-matched lean group was included in the study as a healthy, lean reference.
Prior to day 1 of the dosing phase, the test article was diluted with Phosphate Buffered Saline (PBS, Gibco, without CaCl2 and MgCl2) to a concentration of 1 mg/mL and aliquots of this stock solution were stored at approximately ≤−60° C. On day 1 of the dosing phase the stock aliquot was thawed and the injected test article solution was prepared fresh by diluting it with PBS to achieve the desired concentration.
On Day 1 of the dosing phase db/db mice were either treated once with a s.c. injection of PBS-vehicle or 30 μg/kg test article. The lean reference group was treated once with a s.c. injection of PBS-vehicle. The dosing was initiated and completed between 08:00 and 10:00 AM. The applied volume was 5 ml/kg and the dose was adjusted to the most recent body mass recording of each individual.
Animals had unlimited access to water and feed during the experiment. On day 1 of the dosing phase approximately 5 μL of blood were collected via tail clips at minute −30 and 0 prior to any other inlife activities. At minute 0 mice received a s.c. dose of either PBS-vehicle or 30 μg/kg test article. Further blood samples were harvested at hour 0.25, 0.5, 1, 1.5, 2, 3, 4, 6, 8, and 24 post-dose. Glucose measurements were performed in whole blood using AlphaTRAK glucometers. If the glucose concentrations of two measurements differed by more than 20 mg/dL a third value was recorded. The Area Under the Curve (AUC) for blood glucose was calculated via the trapezoid method and for the duration of the 24 post-dose hours.
In the Figures data are depicted as means±SEM. […] A One Way Analysis of Variance and multiple comparisons (Dunnett's Method) were performed comparing the group of diabetic, obese db/db vehicle mice (n=8) with each diabetic, obese db/db test article treated mice (n=8). […] Non-diabetic, lean-vehicle group data are depicted in the Figures serving as a reference dataset for the non-obese, non-diabetic state.

[2] = Thioflavin T (ThT) assay for physical stability (fibrillation); assay type: physicochemical; conditions: 3 mg/ml, 100 mM acetate pH 4.5 with m-cresol, 37° C. shaking
Outline: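 Peptides at 3 mg/ml final with 100 μM ThT final in 100 mM acetate pH 4.5 containing 2.7 mg/mL m-cresol, eight replicates. Stressed at 37° C by repeated cycles of 10 s shaking at 960 rpm and 50 s rest. Fluorescence read every 20 minutes; lag time in hours taken from the sigmoidal kinetic curve.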

[3] = Chemical stability assessment, UPLC-UV purity loss in buffer system A; assay type: physicochemical; conditions: 1 mg/ml, 25 mM acetate buffer pH 4.5 with m-cresol
Description: Prior to the chemical stability measurement of a peptide batch, its purity was determined through UPLC/MS. For stability testing the target concentration was 1 mg pure compound/ml. Therefore solutions from solid samples were prepared in a buffer system with a concentration of 1 mg/mL compound based on the previously determined % purity:
Chemical stability buffer system A) 25 mM acetate buffer pH 4.5, 3 mg/mL L-Methionine, 2.7 mg/mL m-cresol, 18 mg/mL Glycerol 85% Chemical stability buffer system B) 25 mM phosphate buffer pH 6.0, 3 mg/mL L-Methionine, 2.7 mg/mL m-cresol, 18 mg/mL Glycerol 85%
Peptide solutions were filtered through […] pore size and filled into aliquots under aseptic conditions. At starting point, UPLC-UV was performed by injection of 2 μl of the undiluted sample.
For chemical stability testing, aliquots were stored for 28 days at 5 and 40° C. After this time course the samples were centrifuged for 15 min at 2500 RCF. Then 2 μl of the undiluted supernatant were analysed with UPLC-UV.
The chemical stability was rated through the relative loss of purity calculated by the equation: [(purity at starting point)−(purity after 28 days at X° C.)]/(purity at starting point)]*100%
The purity is calculated as
[(peak area peptide)/(total peak area)]*100%
Peptide samples were prepared in Chemical stability buffer system A and the stability was assessed as described in Methods.

Row | Lag time before increase [2] [h] | Chemical stability [relative purity loss 28 days 40° C.] (%) at pH 4.5 [3] [%] | SMILES | mean blood glucose concentration 24 hours post-dose relative to baseline [1]
1 | >45 | 7.1 | CCCCCCCCCCCCCCCC(=O)N[C@@H](CCC(=O)N[C@@H](CCC(=O)NCCCC[C@H](NC(=O)[C@H](CC(C)C)NC(=O)[C@H](CCCCN)NC(=O)[C@H](CO)NC(=O)[C@H](CC(C)C)NC(=O)[C@H](CC(=O)O)NC(=O)[C@H](CO)NC(=O)[C@@H](NC(=O)[C@H](Cc1ccccc1)NC(=O)[C@@H](NC(=O)CNC(=O)[C@H](Cc1c[nH]cn1)NC(=O)C(C)(C)NC(=O)[C@@H](N)Cc1c[nH]cn1)[C@@H](C)O)[C@@H](C)O)C(=O)N[C@@H](CCC(=O)O)C(=O)N[C@@H](CCC(=O)O)C(=O)N[C@@H](CCC(N)=O)C(=O)N[C@@H](CCCNC(=N)N)C(=O)N[C@@H](CCC(N)=O)C(=O)N[C@@H](CCCCN)C(=O)N[C@@H](CCC(=O)O)C(=O)N[C@@H](Cc1ccccc1)C(=O)N[C@H](C(=O)N[C@@H](CCC(=O)O)C(=O)N[C@@H](Cc1c[nH]c2ccccc12)C(=O)N[C@@H](CC(C)C)C(=O)N[C@@H](CCCCN)C(=O)N[C@@H](C)C(=O)NCC(=O)NCC(=O)N[C@@H](Cc1c[nH]cn1)C(=O)N1CCC[C@H]1C(=O)N[C@@H](CO)C(=O)NC(C)(C)C(=O)N[C@@H](CCCCN)C(=O)N1CCC[C@H]1C(=O)N1CCC[C@H]1C(=O)N1CCC[C@H]1C(=O)N[C@@H](CCCCN)C(N)=O)[C@@H](C)CC)C(=O)O)C(=O)O [SEQ ID NO: 6, H-Aib-H-G-T-F-T-S-D-L-S-K-L-K[gGlu-gGlu-Palm]-E-E-Q-R-Q-K-E-F-I-E-W-L-K-A-G-G-H-P-S-Aib-K-P-P-P-K-NH2] | at or close to baseline
2 | >45 | 10.5 | CCCCCCCCCCCCCCCC(=O)N[C@@H](CCC(=O)N[C@@H](CCC(=O)NCCCC[C@H](NC(=O)[C@H](CC(C)C)NC(=O)[C@H](CCCCN)NC(=O)[C@H](CO)NC(=O)[C@H](CC(C)C)NC(=O)[C@H](CC(=O)O)NC(=O)[C@H](CO)NC(=O)[C@@H](NC(=O)[C@H](Cc1ccccc1)NC(=O)[C@@H](NC(=O)CNC(=O)[C@H](Cc1c[nH]cn1)NC(=O)C(C)(C)NC(=O)[C@@H](N)Cc1c[nH]cn1)[C@@H](C)O)[C@@H](C)O)C(=O)N[C@@H](CCC(=O)O)C(=O)N[C@@H](CCC(=O)O)C(=O)N[C@@H](CCC(N)=O)C(=O)N[C@@H](CCCNC(=N)N)C(=O)N[C@@H](CCC(N)=O)C(=O)NC(C)(C)C(=O)N[C@@H](CCC(=O)O)C(=O)N[C@@H](Cc1ccccc1)C(=O)N[C@H](C(=O)N[C@@H](CCC(=O)O)C(=O)N[C@@H](Cc1c[nH]c2ccccc12)C(=O)N[C@@H](CC(C)C)C(=O)N[C@@H](CCCCN)C(=O)N[C@@H](C)C(=O)N[C@H](C)C(=O)NCC(=O)N[C@@H](Cc1c[nH]cn1)C(=O)N1CCC[C@H]1C(=O)N[C@@H](CO)C(=O)NC(C)(C)C(=O)N[C@@H](CCCCN)C(=O)N1CCC[C@H]1C(=O)N1CCC[C@H]1C(=O)N1CCC[C@H]1C(=O)N[C@@H](CCCCN)C(N)=O)[C@@H](C)CC)C(=O)O)C(=O)O [SEQ ID NO: 13, H-Aib-H-G-T-F-T-S-D-L-S-K-L-K[gGlu-gGlu-Palm]-E-E-Q-R-Q-Aib-E-F-I-E-W-L-K-A-dAla-G-H-P-S-Aib-K-P-P-P-K-NH2] (H-H[Aib]HGTFTSDLSKLK([γGlu-γGlu-Palmitoyl])EEQRQ[Aib]EFIEWLKA[dA]GHPS[Aib]KPPPK-NH2) | at or close to baseline
3 | >45 | 11.9 | CCCCCCCCCCCCCCCC(=O)N[C@@H](CCC(=O)N[C@@H](CCC(=O)NCCCC[C@H](NC(=O)[C@H](CC(C)C)NC(=O)[C@H](CCCCN)NC(=O)[C@H](CO)NC(=O)[C@H](CC(C)C)NC(=O)[C@H](CC(=O)O)NC(=O)[C@H](CO)NC(=O)[C@@H](NC(=O)[C@H](Cc1ccccc1)NC(=O)[C@@H](NC(=O)CNC(=O)[C@H](Cc1c[nH]cn1)NC(=O)C(C)(C)NC(=O)[C@@H](N)Cc1c[nH]cn1)[C@@H](C)O)[C@@H](C)O)C(=O)N[C@@H](CCC(=O)O)C(=O)N[C@@H](CCC(=O)O)C(=O)N[C@@H](CCC(N)=O)C(=O)N[C@@H](CCCNC(=N)N)C(=O)N[C@@H](CCC(N)=O)C(=O)NC(C)(C)C(=O)N[C@@H](CCC(=O)O)C(=O)N[C@@H](Cc1ccccc1)C(=O)N[C@H](C(=O)N[C@@H](CCC(=O)O)C(=O)N[C@@H](Cc1c[nH]c2ccccc12)C(=O)N[C@@H](CC(C)C)C(=O)N[C@@H](CCCCN)C(=O)N[C@@H](C)C(=O)NCC(=O)NCC(=O)N[C@@H](Cc1c[nH]cn1)C(=O)N1CCC[C@H]1C(=O)N[C@@H](CO)C(=O)NC(C)(C)C(=O)N[C@@H](CCCCN)C(=O)N1CCC[C@H]1C(=O)N1CCC[C@H]1C(=O)N1CCC[C@H]1C(=O)N[C@@H](CCCCN)C(N)=O)[C@@H](C)CC)C(=O)O)C(=O)O [SEQ ID NO: 12, H-Aib-H-G-T-F-T-S-D-L-S-K-L-K[gGlu-gGlu-Palm]-E-E-Q-R-Q-Aib-E-F-I-E-W-L-K-A-G-G-H-P-S-Aib-K-P-P-P-K-NH2] | at or close to baseline
4 | >45 | 10.3 | CCCCCCCCCCCCCCCC(=O)N[C@@H](CCC(=O)N[C@@H](CCC(=O)NCCCC[C@H](NC(=O)[C@H](CC(C)C)NC(=O)[C@H](CCCCN)NC(=O)[C@H](CO)NC(=O)[C@H](CC(C)C)NC(=O)[C@H](CC(=O)O)NC(=O)[C@H](CO)NC(=O)[C@@H](NC(=O)[C@H](Cc1ccccc1)NC(=O)[C@@H](NC(=O)CNC(=O)[C@H](Cc1c[nH]cn1)NC(=O)C(C)(C)NC(=O)[C@@H](N)Cc1c[nH]cn1)[C@@H](C)O)[C@@H](C)O)C(=O)N[C@@H](CCC(=O)O)C(=O)N[C@@H](CCC(=O)O)C(=O)N[C@@H](CCC(N)=O)C(=O)N[C@@H](CCCNC(=N)N)C(=O)N[C@@H](CCC(N)=O)C(=O)N[C@@H](CCCCN)C(=O)N[C@@H](CCC(=O)O)C(=O)N[C@@H](Cc1ccccc1)C(=O)N[C@H](C(=O)N[C@@H](CCC(=O)O)C(=O)N[C@@H](Cc1c[nH]c2ccccc12)C(=O)N[C@@H](CC(C)C)C(=O)N[C@@H](CCCCN)C(=O)N[C@@H](C)C(=O)NCC(=O)NCC(=O)N1CCC[C@H]1C(=O)N1CCC[C@H]1C(=O)N[C@@H](CO)C(=O)NC(C)(C)C(=O)N[C@@H](CCCCN)C(=O)N1CCC[C@H]1C(=O)N1CCC[C@H]1C(=O)N1CCC[C@H]1C(=O)N[C@@H](CCCCN)C(N)=O)[C@@H](C)CC)C(=O)O)C(=O)O [SEQ ID NO: 8, H-Aib-H-G-T-F-T-S-D-L-S-K-L-K[gGlu-gGlu-Palm]-E-E-Q-R-Q-K-E-F-I-E-W-L-K-A-G-G-P-P-S-Aib-K-P-P-P-K-NH2] | at or close to baseline
